From patent US10012641B2, “G-protein-coupled-receptor-22-transformed cell lines and methods of use thereof to identify binding compounds” (LIBRAMEN NATURALS INC., priority 2014, dated 2018)
“And” between values parts separate entries of the source, which are not always exact repeats. Equal values may be shown once. “Also recorded” adds a separate entry of the source.

Experiments:
non-transfected S2 cells [1] = test: Fluo-4 AM imaging of intracellular Ca2+ in non-transfected S2 cells; assay type: cell-based, Drosophila; settings: guanosine versus vehicle, FIGS. 12a, 12d
Protocol: Fluo-4 AM calcium imaging was used to visualize intracellular calcium concentration in the GPRC22-transfected and non-transfected S2 cells. A 2.5 mM stock solution of Fluo-4 Am dye (molecular Probes, Burlington, ON) was prepared in DMSO and 20% Pluronic F-127 and used to within a week. The S2 cell preparations were incubated with a final concentration of 5 μM fluo-4AM and 0.02% Pluronic F-127 in 1 ml S2 culture medium for 20 min at room temperature, then washed to allow for full de-esterification of AM esters. Imaging was carried out on an upright Nikon Eclipse FN-S2N upright fluorescence microscope using 10×/40× objectives with a filter to excite Fluo-4, a dye at 488 nm wavelength (peak excitation=494 nm and peak emission=516 nm) using a Lambda DG-4 illuminator (Sutter Instrument Co., Novato, Calif., USA). Images were captured using a Quantem 512SC camera with a frame rate of 5-10 frames per second and Nikon-NIS Elements, advanced research, imaging software. […] ROIs were selected free hand and encompassed the cell body to be analyzed. The ROIs were tracked and the average pixel intensity was measured in that region for the duration of the recording. […] Intracellular calcium concentration of S2 cells was monitored at room temperature. 20-30 S2 cells were calculated to determine the average overall fluorescence signal intracellular calcium concentration. […]

GPCR22 [2] = biological target: T1, GPCR22 (Rattus norvegicus, UniProt D4A3U0); test: Erk 1/2 and Akt phosphorylation by guanosine in cultured rat astrocytes treated with siRNA for GPCR22 (Western Blot); assay type: cell-based; set-up: endogenous in cells; host or cells: cultured rat (brain) astrocytes
Protocol: (§1) Transient transfection of siRNAs for the rGPCR22 gene on rat cultured astrocytes and cell extracts were assayed for gene silencing 24 h after transfection was carried out. siRNA duplex specific for the rGPCR22 receptor were designed and chemically synthesized (www.Dharma.com), as well as their non specific control (NSC). Transfection of siRNAs for targeting endogenous genes was carried out using Oligofectamine (Invitrogen, Life Technologies) according to the manufacturer's instruction. Briefly, astrocytes at 60-70% confluence were cultured for 1 day in culture medium without antibiotics. 10 ml siRNA (20 mM) (Dharmacon research, Inc.) were diluted in 175 ml optimem for 5 min at room temperature. In the meantime, 3 ml oligofectamine was mixed in 15 ml optimem for 5 min. RNA interference was performed by mixing diluted oligofectamine and siRNA for 30 min at room temperature and was then added to the cells. The same scheme was performed on other samples using a siRNA-scrambled (NSP=non specific control). Cells were incubated at 37° C. for 24 hours. Twenty-four hours after transfection, the cells were lysed and assayed for gene silencing. The effect of GPCR22 silencing on MAPK and AKT phosphorylation, and cAMP assay was analysed.

GPCR22 [3] = biological target: T2, GPCR22 (Homo sapiens, UniProt Q99680, C425R); test: Erk 1/2 and Akt phosphorylation by guanosine in 1321N1 human astrocytoma cells transfected with GPCR22 DNA (Western Blot); assay type: cell-based; settings: guanosine 300 μM, compared to non-GPCR22-transfected 1321N1 cells
T2 construct: A full length cDNA clone of human GPCR22 was provided by Origene Technologies; host or cells: 1321N1 human astrocytoma cells, pCMV vector, transient
Protocol: A full length cDNA clone of human GPCR22 was provided by Origene Technologies. Transient expression in the 1321N1 cell line was performed using a pCMV expression vector. cDNA fragments present in an expression vector (pCMV) is located downstream of a transcriptional promoter capable of driving heterologous gene expression in a variety of mammalian cells. 1321N1 cell lines were transiently transfected with hGPCR22 cloned into pCMV expression vectors (Invitrogen). DNA transfection was performed by lipofection using Lipofectamine (Life Technologies). Twenty-four hours after transfection, the cells were lysed and assayed. RT-PCR analysis using GPCR22 forward: CTCATCTGCTGTTTCCACGA (SEQ. ID NO: 5) and GPCR22 reverse CGGATGTTAAGAGCCTGGAG (SEQ. ID NO: 6), was used to confirm the transfection of GPCR22 (G1) (labelled “1321N1 G1-pCMV Trans”) into 1321N1 cells as shown in FIG. 6a and evidenced by the band at 411 bp. Furthermore, the expression of GPCR22 (labelled “1321N1 G1-pCMV Trans”) in 1321N1 cells as compared to non-G1 transfected cells (labelled “1321N1”) was confirmed by Western Blot analysis using a rabbit polyclonal anti-GPCR22 antibody (NovateinBio, SH-A12465, MA, USA), as shown in FIG. 6b.

GPCR22 [4] = biological target: T1, GPCR22; test: Guanosine binding in rat astrocytes after inhibition of GPCR22 by siRNA; set-up: endogenous in cells; host or cells: cultured rat (brain) astrocytes; settings: astrocytes with GPCR22 inhibited by siRNA; data not shown
Protocol: as §1, with “analysed. […]” for “analysed.”

non-transfected S2 cells [5] = test: Actinomycin D-induced apoptosis, Caspase-3 flow cytometry, non-transfected S2 cells; assay type: cell-based, Drosophila; settings: 100 μM guanosine before 1 μM actinomycin D
Protocol: (§2) In order to determine whether guanosine produced any anti-apoptotic effects through a GPCR22-mediated mechanism, the effect of guanosine on apoptosis in GPCR22-transfected S2 cells was measured using flow cytometry techniques. Briefly, S2 cells were maintained in Schneider's Drosophila medium (GIBCO) supplemented with 10% heat-inactivated fetal calf serum, penicillin and streptomycin. For induction of apoptosis both receptor-transfected and non-transfected S2 cells were incubated in 1 μM actinomycin D (Sigma) for 6 hours at 25° C. Prior to the induction of apoptosis, to the S2 culture medium were either added 100 μM guanosine or the same amount of vehicle. After a 48 hr incubation with guanosine or vehicle, the cells were fixed with 4% PFA for fluorescent-immunostaining. The primary antibody Caspase-3 (10 μg/ml; R&D systems AF835) was incubated at room temperature for 1.5 hr and the secondary antibody (donkey anti rabbit Alexa488 (1:1800) was incubated at room temperature for 1 hr. After rinsing with PBS cells were re-suspend with “PBS+0.5% BSA” solution for flow cytometry reading using a 8 colour, […] (488 nm, 633 nm, 405 nm) FACS (Canto) machine.

GPCR22 [6] = biological target: T1, GPCR22; test: Fluo-4 AM imaging of intracellular Ca2+ in GPCR22-transfected S2 cells; assay type: cell-based; set-up: expressed in transfected cells; host or cells: Drosophila Schneider 2 (S2) cells, pMT-V5-HisA vector, CuSO4 induction
Protocol: Fluo-4 AM calcium imaging was used to visualize intracellular calcium concentration in the GPRC22-transfected and non-transfected S2 cells. A 2.5 mM stock solution of Fluo-4 Am dye (molecular Probes, Burlington, ON) was prepared in DMSO and 20% Pluronic F-127 and used to within a week. The S2 cell preparations were incubated with a final concentration of 5 μM fluo-4AM and 0.02% Pluronic F-127 in 1 ml S2 culture medium for 20 min at room temperature, then washed to allow for full de-esterification of AM esters. Imaging was carried out on an upright Nikon Eclipse FN-S2N upright fluorescence microscope using 10×/40× objectives with a filter to excite Fluo-4, a dye at 488 nm wavelength (peak excitation=494 nm and peak emission=516 nm) using a Lambda DG-4 illuminator (Sutter Instrument Co., Novato, Calif., USA). Images were captured using a Quantem 512SC camera with a frame rate of 5-10 frames per second and Nikon-NIS Elements, advanced research, imaging software. Intracellular calcium concentration was created in the Nikon-NIS elements program using regions of interest (ROIs) per each experiment. ROIs were selected free hand and encompassed the cell body to be analyzed. The ROIs were tracked and the average pixel intensity was measured in that region for the duration of the recording. These measurements were then exported to Excel and Clampfit for further analysis of frequency and amplitude. Intracellular calcium concentration of S2 cells was monitored at room temperature. 20-30 S2 cells were calculated to determine the average overall fluorescence signal intracellular calcium concentration. The fluorescence intensity was presented as the ratio F1/F0 in which the raw fluorescence intensity signals of a region of interest (ROI) was compared to the first fluorescence signal in that ROI throughout the recording. The Wilcoxon matched pairs t-test was used on two samples with equal variances to determine statistically significant differences at P=0.05. In each set of experiments, the exposure protocols for control and test conditions were identical.

GPCR22 [7] = biological target: T1, GPCR22; test: [3H]-guanosine binding to GPCR22 protein extracted from transfected S2 cells, competition with cold guanosine; set-up: expressed in transfected cells; host or cells: Drosophila Schneider 2 (S2) cells, pMT-V5-HisA vector, CuSO4 induction; settings: 10 nM [3H]-guanosine, 25° C., 75 min, FIG. 14
Protocol: The ability of GPCR22 receptor to bind to guanosine was assessed by performing competitive binding studies in the presence of cold guanosine. GPCR22 protein extracted from transfected […] cells were used in performing receptor-binding studies. The binding of [^3H]-guanosine (“hot” guanosine) to GPCR22 receptor was performed in triplicate in a final volume of 125 μl assay buffer (pH 7.4, 50 mM Tris-HCl, 1 mM EDTA, 5 mM MgCl2, 0.1 mM DTT, 0.1 mM PMSF, 100 mg/ml bacitracin and 5 mg/ml soybean trypsin inhibitor) containing 10 nM [^3H]-guanosine and the following concentrations of unlabeled guanosine (“cold” guanosine) (0.01 μM, 0.1 μM, 1.0 μM, 10 μM, 100 μM and 1 mM) and 50 ug of protein. The incubation of the GPCR22 receptor protein with ligands was carried out at 25° C. for 75 min. At the end of the incubation period, the unbound ligands were separated by vacuum filtration through Whatman GF/B filters. The bound ligand-protein was further washed 3 times with 5 ml of Tris-EDTA buffer, pH 7.4 (50 mM Tris-HCl, 1 mM EDTA). The radioactive filters were placed in plastic counting vials containing 4 ml of scintillation fluid, equilibrated overnight in a dark environment and counted the next day in a Beckman LS5000 liquid scintillation counter Model 1780. Non-specific binding was also calculated by the addition of excess guanosine (10 mM). […]

GPCR22 (G1) receptor = biological target: T3, GPCR22 (G1) receptor (Homo sapiens, UniProt Q99680, C425R); test: Intracellular cAMP in 1321N1 cell line transfected with GPCR22 (G1) receptor; assay type: cell-based; settings: increasing concentrations of guanosine, absence and presence of PTX (200 ng/ml, 16 h); FIG. 7e
T3 construct: A full length cDNA clone of human GPCR22 was provided by Origene Technologies; expressed in transfected cells; host or cells: 1321N1 human astrocytoma cells

[8] = tested on: GPCR22-transfected S2 cells; test: Actinomycin D-induced apoptosis, Caspase-3 flow cytometry, GPCR22-transfected S2 cells; assay type: cell-based, Drosophila; settings: 100 μM guanosine before 1 μM actinomycin D; FIGS. 11a-d
Protocol: as §2

T1 sequence (D4A3U0 whole entry): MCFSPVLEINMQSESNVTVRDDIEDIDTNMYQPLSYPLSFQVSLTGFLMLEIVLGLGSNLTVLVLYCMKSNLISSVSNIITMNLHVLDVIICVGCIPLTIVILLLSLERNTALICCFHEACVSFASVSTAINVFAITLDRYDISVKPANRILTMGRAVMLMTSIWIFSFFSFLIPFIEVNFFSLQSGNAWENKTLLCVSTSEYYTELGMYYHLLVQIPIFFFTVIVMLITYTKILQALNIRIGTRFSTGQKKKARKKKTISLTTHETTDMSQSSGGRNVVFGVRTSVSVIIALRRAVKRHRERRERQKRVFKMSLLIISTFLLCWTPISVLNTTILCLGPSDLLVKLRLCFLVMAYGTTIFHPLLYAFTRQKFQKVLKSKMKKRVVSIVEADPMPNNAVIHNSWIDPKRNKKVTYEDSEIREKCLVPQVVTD
T2 sequence (Q99680 whole entry C425R): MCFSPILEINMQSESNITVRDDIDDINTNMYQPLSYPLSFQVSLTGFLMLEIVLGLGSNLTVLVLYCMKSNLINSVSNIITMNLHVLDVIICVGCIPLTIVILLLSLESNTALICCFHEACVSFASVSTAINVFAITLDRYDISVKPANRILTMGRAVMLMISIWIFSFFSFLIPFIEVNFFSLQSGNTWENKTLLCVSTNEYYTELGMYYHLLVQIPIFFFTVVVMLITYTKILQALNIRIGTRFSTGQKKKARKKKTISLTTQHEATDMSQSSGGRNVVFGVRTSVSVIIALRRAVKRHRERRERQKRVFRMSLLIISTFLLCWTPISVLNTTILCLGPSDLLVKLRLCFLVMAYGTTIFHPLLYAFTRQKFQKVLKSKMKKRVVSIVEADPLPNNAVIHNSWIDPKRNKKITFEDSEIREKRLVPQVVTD
T3 sequence (Q99680 whole entry C425R): as above

Nc1nc2c(ncn2[C@@H]2O[C@H](CO)[C@@H](O)[C@H]2O)c(=O)[nH]1 [guanosine]
intracellular Ca^2+ level (non-transfected S2 cells [1]): does not induce; also recorded: had no effect | activation of intracellular signaling by guanosine (GPCR22 [2]; astrocytes with GPCR22 inhibited by siRNA, data not shown): abolish | phosphorylation of Erk 1/2 (GPCR22 [2]; guanosine 300 μM, astrocytes treated with si-RNA for GPCR22, FIG. 7a): inhibited | phosphorylation of Akt (GPCR22 [2]; guanosine 300 μM, astrocytes treated with si-RNA for GPCR22, FIG. 7b): inhibited | phosphorylation of Erk 1/2 (GPCR22 [3]; FIG. 7c): resulted in phosphorylation of both Erk 1/2 and Akt | phosphorylation of Akt (GPCR22 [3]; FIG. 7d): resulted in phosphorylation of both Erk 1/2 and Akt | guanosine binding (GPCR22 [4]): abolish | protection from actinomycine-induced apoptotic cell death (Caspase-3) (non-transfected S2 cells [5]): had no effect | time of intracellular calcium increase after adding guanosine (GPCR22 [6]; GPCR22-transfected S2 cells): ≤ 2 min | intracellular Ca^2+ level (GPCR22 [6]; GPCR22-transfected S2 cells, FIGS. 12b, 12c, 15): elevate intracellular Ca^2+ levels; also recorded: significantly increases intracellular calcium level | guanosine dose giving peak intracellular calcium increase (GPCR22 [6]; GPCR22-transfected S2 cells, low dose 0.1 μM to 10 μM, FIG. 13g): 5 µM | intracellular Ca^2+ (GPCR22 [6]; guanosine 25 μM, time point 1 min, FIG. 13e): significant increase | intracellular Ca^2+ fluorescence (GPCR22 [6]; guanosine 100 μM, imaging at 0, 0.5, 1 and 2 min, FIGS. 13a-d): fast and transient fluorescence increase | intracellular Ca^2+ response across high doses (GPCR22 [6]; high dose guanosine 25 μM-400 μM, time point 1 min, FIG. 13f): no significant difference | Bmax (GPCR22 [7]): 1.05±0.12 pmol mg^−1 protein and 1.057 pmol mg^−1 protein | Kd (GPCR22 [7]; single high affinity binding site): 0.171 ± 0.0398 µM | intracellular cAMP levels (GPCR22 (G1) receptor): increase intracellular cAMP levels | protection from actinomycine-induced apoptotic cell death (Caspase-3) [8]: protected transfected S2 cells from apoptotic cell death
